The target of series [1] is T1, E. coli PhoR (PhoR^E) (Escherichia coli, UniProt P08400).
T1 construct: The catalytic portion (DHp and CA domain) of E. coli PhoR (PhoR^E); made in house; host or cells: E. coli RIL
Description: In vitro autophosphorylation kinase assay with γ-32P-ATP, PhoR^E. The series is classed as biochemical. Particulars: for IC50: autophosphorylation, one time point (30 sec), 10% DMSO; for inhibition at 2000 µM: 2 mM, 30 sec, compared to negative control. The method, then: (§1) To evaluate the inhibitory capacity of selected hits from DSF, SBVS and LBSS in vitro autophosphorylation kinase assays with γ-^32P-ATP were performed as previously described. Ligands were dissolved in 100% DMSO. […] Controls lacking ligands contained an equal concentration of DMSO. Inhibition of autophosphorylation was determined by incubating 0.12 mg/ml (≈4 μM) HK and up to 20 mM fragment in kinase buffer (50 mM Tris HCl, pH 8.5, 50 mM KCl, 5 mM MgCl2, 0.5 mM EDTA and 0.1 mM DTT). Autophosporylation reactions were initiated by addition of 0.1 μCi/μl γ-^32P-ATP containing from 0.03 to 0.06 μM ATP (final concentrations). Autophosphorylation was quenched with 2xSDS-PAGE sample buffer supplemented with 50 mM EDTA. […] After electrophoresis, the bottoms of the gels were removed to lower the background from the unincorporated radiolabeled ATP. Gels were dried without staining on a Bio-Rad Gel Air drying system and the phosphorylated protein was quantified by phosphor-imaging. Prism GraphPad was used for curve fitting and statistical analysis.

Series [2] concerns the target T2, S. pneumoniae WalK (Streptococcus pneumoniae, UniProt Q8DPL8).
T2 construct: WalK (amino acids from 208 to 449); N-terminal His6-3C site of vector pOPINF (own knowledge of the vector); made in house; host or cells: E. coli RIL
Description: In vitro autophosphorylation kinase assay with γ-32P-ATP, WalK. In kind it is biochemical. Particulars: autophosphorylation, one time point (30 sec), 10% DMSO. As to the method:
as §1

Series [3] deals with Staphylococcus aureus. Nature of the series: Antibacterial susceptibility testing (MIC/MBC), S. aureus. The series is classed as cell-based. Particulars: for MIC / MBC: Staphylococcus aureus. The method, then:
(§2) Minimal inhibitory concentrations (MICs) were determined following a standard double-dilution method. […] For S. pneumoniae MICs were determined by adapting the standard double-dilution method to anaerobic conditions and of this microorganism (use of Todd Hewitt Yeast extract with 200 U/mL of catalase and continuous monitoring of growth).

In series [4] the test system is Staphylococcus epidermidis. Description: Antibacterial susceptibility testing (MIC/MBC), S. epidermidis. In kind it is cell-based. Conditions: Staphylococcus epidermidis. The method, then: as §2
The test system of series [5] is Escherichia coli. Nature of the series: Antibacterial susceptibility testing (MIC/MBC), E. coli. In kind it is cell-based. Particulars: Escherichia coli; for MIC: read-out: MIC E. coli CFT 073. As to the method:
as §2

Series [6] is described as follows: Solubility in kinase buffer. Conditions: kinase buffer in the presence of 10% DMSO. The series is classed as physicochemical.
For series [7], the target named is S. aureus PhoR (PhoR^S) (Staphylococcus aureus, UniProt Q2FXN7). Description: In vitro autophosphorylation kinase assay with γ-32P-ATP, PhoR^S. The series is classed as biochemical. Conditions: autophosphorylation, one time point (30 sec), 10% DMSO. The method, then: (§3) To evaluate the inhibitory capacity of selected hits from DSF, SBVS and LBSS in vitro autophosphorylation kinase assays with γ-^32P-ATP were performed as previously described. Ligands were dissolved in 100% DMSO. […] Controls lacking ligands contained an equal concentration of DMSO. Inhibition of autophosphorylation was determined by incubating 0.12 mg/ml (≈4 μM) HK and up to 20 mM fragment in kinase buffer (50 mM Tris HCl, pH 8.5, 50 mM KCl, 5 mM MgCl2, 0.5 mM EDTA and 0.1 mM DTT). Autophosporylation reactions were initiated by addition of 0.1 μCi/μl γ-^32P-ATP containing from 0.03 to 0.06 μM ATP (final concentrations). Autophosphorylation was quenched with 2xSDS-PAGE sample buffer supplemented with 50 mM EDTA. Samples were applied without heating to 15% (w/v) Tris-glycine SDS-polyacrylamide gels. After electrophoresis, the bottoms of the gels were removed to lower the background from the unincorporated radiolabeled ATP. Gels were dried without staining on a Bio-Rad Gel Air drying system and the phosphorylated protein was quantified by phosphor-imaging. Prism GraphPad was used for curve fitting and statistical analysis.

The target of series [8] is T3, T. maritima HK853 (Thermotoga maritima, UniProt Q9WZV7).
T3 sequence (Q9WZV7 232-489): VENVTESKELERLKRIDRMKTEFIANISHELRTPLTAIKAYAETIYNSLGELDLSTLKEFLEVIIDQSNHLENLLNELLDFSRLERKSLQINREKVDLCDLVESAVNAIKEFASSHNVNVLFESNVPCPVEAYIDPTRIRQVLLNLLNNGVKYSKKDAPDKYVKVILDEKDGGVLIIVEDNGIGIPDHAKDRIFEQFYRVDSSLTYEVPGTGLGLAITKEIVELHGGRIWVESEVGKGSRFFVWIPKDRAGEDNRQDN
Nature of the series: In vitro autophosphorylation kinase assay with γ-32P-ATP, HK853. The series is classed as biochemical. As to the method: as §3

Where [9] appears, read: DSM20231, strain DSM 20231, read-out: MIC S. aureus DSM 20231.
Where [10] appears, read: DSM20044, strain DSM 20044, read-out: MIC S. epidermidis DSM 20044.
[11] abbreviates: DSM20231, read-out: MBC S. aureus DSM 20231.
Setting [12] is: DSM20231, read-out: MIC S. aureus DSM 20231.
The mark [13] stands for this setting: DSM20044, read-out: MIC S. epidermidis DSM 20044.

Molecules are shown by their SMILES. ≈ marks a conversion by molar mass, not a printed value. Where two headings read alike, the source gives them in different places.

T2 sequence (Q8DPL8 208-449): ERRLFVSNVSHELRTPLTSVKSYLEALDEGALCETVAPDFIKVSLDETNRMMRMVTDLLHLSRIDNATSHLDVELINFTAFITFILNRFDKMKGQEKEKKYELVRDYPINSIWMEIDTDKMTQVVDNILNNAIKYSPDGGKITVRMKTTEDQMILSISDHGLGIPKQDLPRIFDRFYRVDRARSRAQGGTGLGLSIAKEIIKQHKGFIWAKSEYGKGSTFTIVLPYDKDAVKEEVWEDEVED
T1 sequence (P08400 210-425): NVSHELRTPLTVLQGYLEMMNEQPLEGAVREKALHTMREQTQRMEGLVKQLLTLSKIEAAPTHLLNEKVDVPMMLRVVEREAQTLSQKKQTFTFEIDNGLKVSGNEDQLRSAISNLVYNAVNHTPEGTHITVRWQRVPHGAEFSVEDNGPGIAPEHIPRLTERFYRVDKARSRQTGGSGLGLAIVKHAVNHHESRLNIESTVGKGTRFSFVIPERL
Sequence of S. aureus PhoR (PhoR^S) (Q2FXN7 entry or part of it): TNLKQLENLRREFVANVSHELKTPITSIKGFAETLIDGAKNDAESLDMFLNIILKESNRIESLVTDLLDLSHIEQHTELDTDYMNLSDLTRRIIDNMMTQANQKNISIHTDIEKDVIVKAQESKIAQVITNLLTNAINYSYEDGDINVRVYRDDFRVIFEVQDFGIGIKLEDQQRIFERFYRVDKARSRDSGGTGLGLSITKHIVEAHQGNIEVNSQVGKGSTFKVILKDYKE

Take `Brc1ccc(C2=CSC3=NCCN23)cc1` [F1.7]: the IC50 in series [1] (IC50 PhoR^E) and in series [2] (IC50 WalK) was > 2 mM each time. In addition, the MIC in series [3] (setting [9]), in series [4] (setting [10]) and in series [5] (strain CFT 073) was > 500 µg/mL each time.
As for `COc1ccc(-c2csc(N)n2)cc1OC` [F1.9], the IC50 in series [1] (IC50 PhoR^E) and in series [2] (IC50 WalK) was > 2 mM each time. Moreover, the MIC in series [3] (setting [9]), in series [4] (setting [10]) and in series [5] (strain CFT 073) was > 500 µg/mL throughout.
Turning to `CC(C)(C)c1ccc(OCc2c[nH]cn2)cc1` [F1.10], the concentration for half-maximal inhibition (IC50) in series [1] (IC50 PhoR^E) and in series [2] (IC50 WalK) was > 2 mM in each case. The MIC in series [3] (setting [9]), in series [4] (setting [10]) and in series [5] (strain CFT 073) was > 500 µg/mL each time.
As for `Nc1ccc2c(c1)[nH]c1ccccc12` [F2.1], the inhibition at 2000 µM in series [1] is > 50%. For the same compound, the results for the IC50 in series [1] (read-out: IC50 PhoR^E) and in series [2] (read-out: IC50 WalK) were 0.24 mM and > 2 mM, respectively. The MBC in series [3] (setting [11]) was > 500 µg/mL. Further, the MIC is 8 µg/mL (≈ 43.9 µM) in series [3] (setting [12]), > 500 µg/mL in series [4] (setting [13]) and > 500 µg/mL in series [5]. In addition, in series [6], the “solubility in kinase buffer” value is “good solubility”.
For `O=c1c2ccccc2[nH]c2ccc(O)cc12` [F2.2], in series [1], the inhibition at 2000 µM was > 50%. Moreover, the concentration for half-maximal inhibition (IC50) in series [1] (IC50 PhoR^E) is < 2 mM; in series [2] (IC50 WalK) it was > 2 mM. For the same compound, the minimal inhibitory concentration (MIC) in series [3] (setting [9]), in series [4] (setting [10]) and in series [5] (strain CFT 073) was > 500 µg/mL in each case.
With `c1ccc2c(c1)[nH]c1ccccc12` [F2.5], the IC50 in series [1] (read-out: IC50 PhoR^E) and in series [2] (read-out: IC50 WalK) was > 2 mM each time. The MIC in series [3] (setting [12]), in series [4] (setting [13]) and in series [5] was > 500 µg/mL each time.
On to `Cn1c2ccccc2c2ccccc21` [F2.6], for which the IC50 in series [1] (read-out: IC50 PhoR^E) and in series [2] (read-out: IC50 WalK) was > 2 mM each time. Further, the MIC in series [3] (setting [12]), in series [4] (setting [13]) and in series [5] was > 500 µg/mL each time. Besides, the MBC in series [5] (read-out: MBC E. coli CFT 073) came to 500 µg/mL (≈ 2760 µM).
In the case of `c1ccc2[nH]ccc2c1` [F2.7], the IC50 in series [1] (read-out: IC50 PhoR^E) and in series [2] (read-out: IC50 WalK) was > 2 mM in each case. The MBC in series [3] (setting [11]) is > 500 µg/mL. Also, the figures for the MIC in series [3] (setting [12]), in series [4] (setting [13]) and in series [5] were 500 µg/mL (≈ 4270 µM), > 500 µg/mL and 500 µg/mL (≈ 4270 µM), respectively.
Regarding `CCc1ccc2[nH]c3ccccc3c2c1` [F2.9], the inhibition at 2000 µM in series [1] is > 50%. Moreover, the IC50 was < 2 mM in series [1] (IC50 PhoR^E) and > 2 mM in series [2] (IC50 WalK). In series [3] (DSM20231, strain DSM 20231, read-out: MBC S. aureus DSM 20231), the MBC is > 500 µg/mL. In addition, the MIC in series [3] (setting [9]), in series [4] (setting [10]) and in series [5] (strain CFT 073) was > 500 µg/mL in each case.
`O=C(CCN1c2ccccc2Sc2ccccc21)OCc1cc(=O)n2ccsc2n1` [S1]: the concentration for half-maximal inhibition (IC50) in series [7] (IC50 PhoR^S), in series [1] (IC50 PhoR^E), in series [8] and in series [2] (IC50 WalK) was > 5 mM each time. In addition, the MIC in series [3] (setting [9]), in series [4] (setting [10]) and in series [5] (strain CFT 073) was > 500 µg/mL in each case.
Turning to `CC(OC(=O)c1cccc(S(=O)(=O)N2CCc3ccccc3C2)c1)C(=O)NC(N)=O` (centres unmarked) [S2], the IC50 in series [7] (IC50 PhoR^S), in series [1] (IC50 PhoR^E), in series [8] and in series [2] (IC50 WalK) was > 5 mM throughout. Further, the MIC in series [3] (setting [9]), in series [4] (setting [10]) and in series [5] (strain CFT 073) was > 500 µg/mL in each case.
Take `CC(NC(=O)C1CC(=O)N(c2ccccc2)C1)c1cccc(NC(=O)c2ccccc2)c1` (centres unmarked) [S3]: the IC50 in series [7] (IC50 PhoR^S), in series [1] (IC50 PhoR^E), in series [8] and in series [2] (IC50 WalK) was > 5 mM each time. Further, the MIC in series [3] (setting [9]), in series [4] (setting [10]) and in series [5] (strain CFT 073) was > 500 µg/mL each time.
As to `CNC(=O)NC(=O)CSc1nc2sc3c(c2c(=O)n1-c1ccccc1F)CCCC3` [S4], the IC50 in series [7] (IC50 PhoR^S), in series [1] (IC50 PhoR^E), in series [8] and in series [2] (IC50 WalK) was > 5 mM each time. The MIC in series [3] (setting [9]), in series [4] (setting [10]) and in series [5] (strain CFT 073) was > 500 µg/mL in each case.
For `c1ccc2cc(CNc3ccc4c(c3)OCCO4)ccc2c1` [S7], the IC50 in series [7] (read-out: IC50 PhoR^S) is < 5 mM; in series [1] (IC50 PhoR^E) it was > 5 mM; in series [8] it was > 5 mM; in series [2] (IC50 WalK), > 5 mM. For the same compound, the minimal inhibitory concentration (MIC) in series [3] (setting [9]), in series [4] (setting [10]) and in series [5] (strain CFT 073) was > 500 µg/mL each time. Besides, in series [3] (strain DSM 20231), the “MBC S. aureus DSM 20231” value was > 500 µg/mL.
Regarding `CC(NCc1cccc2ccccc12)c1ccc(F)cc1` (centres unmarked) [S8], the IC50 was < 5 mM in series [7] (read-out: IC50 PhoR^S), > 5 mM in series [1] (IC50 PhoR^E), > 5 mM in series [8] and > 5 mM in series [2] (IC50 WalK). The MIC in series [3] (setting [9]), in series [4] (setting [10]) and in series [5] (strain CFT 073) was > 500 µg/mL each time.
Regarding `CC(NCc1cccc2ccccc12)c1cccc(F)c1` (centres unmarked) [S9], the IC50 in series [7] (IC50 PhoR^S), in series [1] (IC50 PhoR^E), in series [8] and in series [2] (IC50 WalK) was > 5 mM in each case. For the same compound, the MIC in series [3] (setting [9]), in series [4] (setting [10]) and in series [5] (strain CFT 073) was > 500 µg/mL in each case.
Regarding `CC(NCc1cccc(F)c1)c1ccc2ccccc2c1` (centres unmarked) [S10], the IC50 in series [7] (IC50 PhoR^S), in series [1] (IC50 PhoR^E), in series [8] and in series [2] (IC50 WalK) was > 5 mM throughout. Also, the MIC in series [3] (setting [9]), in series [4] (setting [10]) and in series [5] (strain CFT 073) was > 500 µg/mL throughout.

One may read the IC50 as the concentration that inhibits the measured activity by half. One may read the MIC as the least concentration at which growth counts as inhibited. In general, inhibition refers to the relative decrease from the control value, in per cent. Higher therefore signals a strong effect. What is called MBC is the smallest concentration meeting the test's criterion for killing.

The values are drawn from paper PMC4865847, “Putative histidine kinase inhibitors with antibacterial effect against multi-drug resistant clinical isolates identified by in vitro and in silico screens” (Scientific Reports, 2016).
